Results on 1 compound are retold here after ChEMBL document CHEMBL5625249, “Optimization and antifungal activity of quinoline derivatives linked to chalcone moiety combined with FLC against Candida albicans” (Eur J Med Chem, 2023).

Series [1] has as its system Candida albicans. Put plainly: Synergistic antifungal activity against Clinical FLC-resistant Candida albicans 23 assessed as fractional inhibitory concentration index measured after 24 hrs in presence of fluconazole by microdilution method. In kind it is functional. Background: Broth dilution looks for growth in wells or tubes with falling amounts of substance.
Series [2] relates to Candida albicans. In words: Antifungal activity against clinical FLC-resistant Candida albicans 602 measured after 24 hrs by microdilution method. Format: functional.
The subject of series [3] is Candida albicans. In words: Antifungal activity against clinical FLC-resistant Candida albicans 3816 measured after 24 hrs by microdilution method. In kind it is functional.
For series [4], the system named is Candida albicans. In words: Antifungal activity against clinical FLC-resistant Candida albicans 3511 measured after 24 hrs by microdilution method. In kind it is functional.
For series [5], the system named is Candida albicans. In words: Synergistic antifungal activity against clinical FLC-resistant Candida albicans 799 measured after 24 hrs by microdilution method. Format: functional.
The subject of series [6] is Candida albicans. Put plainly: Synergistic antifungal activity against clinical FLC-resistant Candida albicans 4508 measured after 24 hrs by microdilution method. In kind it is functional.
In series [7] the test system is Candida albicans. In words: Synergistic antifungal activity against FLC-resistant Candida albicans ATCC 14053 assessed as fractional inhibitory concentration index measured after 24 hrs by microdilution method. In kind it is functional.
Series [8] concerns Candida albicans. Put plainly: Synergistic antifungal activity against FLC-resistant Candida albicans ATCC 14053 cultured in spider medium assessed as inhibition of hyphal formation at 1 ug/ml measured after 4 to 8 hrs in presence of fluconazole by inverted microscopy. Format: functional, organism-based. To be noted: dose 1.0 µg/ml, time 4-8 hrs.
In series [9] the test system is Candida albicans. Put plainly: Synergistic antifungal activity against FLC-resistant Candida albicans ATCC 14053 assessed as inhibition of hyphal formation by measuring down regulation of ECE1 gene expression at 1 ug/ml measured after 16 to 18 hrs in presence of fluconazole by qRT-PCR analysis. Format: functional, organism-based. The note with it: dose 1.0 µg/ml, time 16-18 hrs.

In series [10] the test system is Candida albicans. In words: Synergistic antifungal activity against FLC-resistant Candida albicans ATCC 14053 assessed as inhibition of hyphal formation by measuring down regulation of HWP1 gene expression at 1 ug/ml measured after 16 to 18 hrs in presence of fluconazole by qRT-PCR analysis. In kind it is functional, organism-based. The note with it: dose 1.0 µg/ml, time 16-18 hrs. On the technique in general: Quantitative PCR measures a nucleic acid by following its amplification.

For series [11], the system named is Candida albicans. In words: Synergistic antifungal activity against FLC-resistant Candida albicans ATCC 14053 cultured in SD +10% FBS liquid medium assessed as inhibition of hyphal formation at 1 ug/ml measured after 4 to 8 hrs in presence of fluconazole by inverted microscopy. In kind it is functional, organism-based. To be noted: dose 1.0 µg/ml, time 4-8 hrs.

The test system of series [12] is Candida albicans. In words: Synergistic antifungal activity against FLC-resistant Candida albicans ATCC 14053 cultured in SD +10% FBS liquid medium assessed as inhibition of hyphal formation at 1 ug/ml measured after 4 to 8 hrs in presence of fluconazole and dibutyryl-cAMP by inverted microscopy. In kind it is functional, organism-based. To be noted: dose 1.0 µg/ml, time 4-8 hrs.

The subject of series [13] is Candida albicans. In words: Synergistic antifungal activity against FLC-resistant Candida albicans ATCC 14053 assessed as reduction in intracellular ATP level at 1 ug/ml measured after 16 to 18 hrs in presence of fluconazole by luminescence assay. To be noted: dose 1.0 µg/ml, time 16-18 hrs. Format: functional, organism-based.
For series [14], the system named is Candida albicans. Put plainly: In vivo antifungal activity against FLC-resistant Candida albicans ATCC 14053 infected in Balb/c mouse assessed as survival rate at 7.5 to 15 mg/kg, ig measured daily for 6 days in presence of fluconazole (Rvb < 20%). The note with it: dose 7.5-15 mg/kg, time 6 day. Format: functional.
The nature of series [15]: Toxicity in Balb/c mouse assessed as weight loss at 15 mg/kg, ig measured daily for 6 days. Format: organism-based. The note with it: in vivo, po, 144 h, time 6 day.
Series [16] in a line: Toxicity in Balb/c mouse infected with FLC-resistant Candida albicans ATCC 14053 assessed as weight loss at 15 mg/kg, ig measured daily for 6 days. In kind it is organism-based. To be noted: in vivo, po, 144 h, time 6 day.
The test system of series [17] is Candida albicans. In words: In vivo antifungal activity against FLC-resistant Candida albicans ATCC 14053 infected in Balb/c mouse assessed as reduction in liver fungal load at 15 mg/kg, ig measured after 6 days. Format: functional, organism-based. The note with it: time 6.0 day.
For series [18], the system named is Candida albicans. In words: In vivo antifungal activity against FLC-resistant Candida albicans ATCC 14053 infected in Balb/c mouse assessed as increase in organ coefficients of spleen at 7.5 to 15 mg/kg, ig measured after 6 days in presence of fluconazole. Format: functional, organism-based. To be noted: dose 7.5-15 mg/kg, time 6.0 day.
The subject of series [19] is Candida albicans. Put plainly: In vivo antifungal activity against FLC-resistant Candida albicans ATCC 14053 infected in Balb/c mouse assessed as reduction in severity of lesions in lungs at 15 mg/kg, ig measured after 6 days by H and E staining based histopathological analysis. Format: functional, organism-based. To be noted: time 6.0 day.
Series [20] deals with Candida albicans. In words: In vivo antifungal activity against FLC-resistant Candida albicans ATCC 14053 infected in Balb/c mouse assessed as reduction in internal fungal growth at 7.5 to 15 mg/kg, ig measured after 6 days in presence of fluconazole by H and E staining based histopathological analysis. Format: functional, organism-based. The note with it: dose 7.5-15 mg/kg, time 6.0 day.

The MIC80 is the lowest concentration that inhibits either 80% of growth or 80% of the strains tested, depending on the study.

The source made the active and inactive calls. The rule behind the calls is not given here.

As for `CN1CCN(c2nc3ccccc3cc2/C=C/C(=O)c2ccc(N3CCN(Cc4ccc(C(F)(F)F)cc4)CC3)cc2)CC1`, the figures for the “fractional inhibitory concentration index (FICI)” value with Candida albicans [1] and in the series with Candida albicans [7] were 0.03 and 0.02, respectively. Also, the MIC80 with Candida albicans [2] is above 40 µg/mL; with Candida albicans [3], above 40 µg/mL; against Candida albicans [4], above 40 µg/mL; in the series on Candida albicans [5] it was 1.12 µg/mL; in the series on Candida albicans [6], 1.22 µg/mL. Further, the inhibition result in the series with Candida albicans [8], in the series on Candida albicans [9], with Candida albicans [10] and with Candida albicans [11] was “Active” in each case. For the same compound, in the series on Candida albicans [12], the inhibition entry is “inactive”. The outcome with Candida albicans [13], in the series with Candida albicans [18] and in the series with Candida albicans [20] was Active. Besides, the Survival in the series on Candida albicans [14] is on record as 90%. The Activity result in series [15] is “Non-Toxic”; in [16], “Toxic”. Further, the result in the series with Candida albicans [17] and in the series on Candida albicans [19] was inactive.
